# Assay results as given in US6358885B1, “Substituted phenylheterocyclic herbicides” (Mississippi State University, priority 1992, dated 2002).
# Experiments:
# giant foxtail [1] = experiment: Test B preemergence/postemergence greenhouse plant response rating 0 to 10; format: in vivo, Setaria faberii; conditions: 0 to 10 scale
# Procedure, shortened: (§1)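 Test chemicals were sprayed onto freshly planted seed and, concurrently, onto young plants between the one and four leaf stage. After a twelve- to sixteen-day greenhouse period, each species was visually compared with untreated controls.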
# lambsquarters = experiment: as above; format: in vivo, Chenopodium album; conditions: 0 to 10 scale
# Procedure, shortened: as §1
# downy brome = experiment: Test C preemergence/postemergence greenhouse plant response rating 0 to 100; format: in vivo, Bromus tectorum; conditions: POSTEMERGENCE; for Plant response rating Downy Brome: 0 to 100 scale
# Procedure, shortened: (§2)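 Compounds in non-phytotoxic solvent applied preemergence to sandy loam one day after planting, postemergence at the 1–4 leaf stage, or to ~2.5 cm floodwater over silt loam.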
# purple nutsedge = experiment: Test B preemergence/postemergence greenhouse plant response rating 0 to 10; format: in vivo, Cyperus rotundus; conditions: 0 to 10 scale
# Procedure, shortened: as §1
# cocklebur = experiment: as above; format: in vivo, Xanthium pensylvanicum; conditions: 0 to 10 scale
# Procedure, shortened: as §1
# wild oat [2] = experiment: Test C preemergence/postemergence greenhouse plant response rating 0 to 100; format: in vivo, Avena fatua; conditions: POSTEMERGENCE; for Plant response rating, Wild oat: 0 to 100 scale
# Procedure, shortened: as §2
# soybean = experiment: as above; format: in vivo, Glycine max; conditions: POSTEMERGENCE; for Plant response rating, Soybean: 0 to 100 scale
# Procedure, shortened: as §2
# barnyardgrass [3] = experiment: Test C flood test plant response rating 0 to 100; format: in vivo, Echinochloa crus-galli; conditions: for Plant response rating Barnyardgrass 2: flood test species listed under POSTEMERGENCE, 0 to 100 scale
# Procedure, shortened: as §2
# cotton = experiment: Test C preemergence/postemergence greenhouse plant response rating 0 to 100; format: in vivo, Gossypium hirsutum; conditions: POSTEMERGENCE; for Plant response rating, Cotton: 0 to 100 scale
# Procedure, shortened: as §2
# umbrella sedge = experiment: Test C flood test plant response rating 0 to 100; format: in vivo, Cyperus difformis; conditions: for Plant response rating Umbrella sedge: flood test species listed under POSTEMERGENCE, 0 to 100 scale
# Procedure, shortened: as §2
# chickweed = experiment: Test C preemergence/postemergence greenhouse plant response rating 0 to 100; format: in vivo, Stellaria media; conditions: POSTEMERGENCE; for Plant response rating, Chickweed: 0 to 100 scale
# Procedure, shortened: as §2
# rice = experiment: Test C flood test plant response rating 0 to 100; format: in vivo, Oryza sativa; conditions: for Plant response rating Rice Japonica: flood test species listed under POSTEMERGENCE, 0 to 100 scale
# Procedure, shortened: as §2
# barnyardgrass [4] = experiment: Test B preemergence/postemergence greenhouse plant response rating 0 to 10; format: in vivo, Echinochloa crus-galli; conditions: 0 to 10 scale
# Procedure, shortened: as §1
# rape = experiment: Test C preemergence/postemergence greenhouse plant response rating 0 to 100; format: in vivo, Brassica napus; conditions: POSTEMERGENCE; for Plant response rating, Rape: 0 to 100 scale
# Procedure, shortened: as §2
# wild oat [5] = experiment: Test B preemergence/postemergence greenhouse plant response rating 0 to 10; format: in vivo, Avena fatua; conditions: 0 to 10 scale
# Procedure, shortened: as §1
# wild buckwheat = experiment: as above; format: in vivo, Polygonum convolvulus; conditions: 0 to 10 scale
# Procedure, shortened: as §1
# giant foxtail [6] = experiment: Test C preemergence/postemergence greenhouse plant response rating 0 to 100; format: in vivo, Setaria faberii; conditions: POSTEMERGENCE; for Plant response rating, Giant foxtail: 0 to 100 scale
# Procedure, shortened: as §2
# crabgrass = experiment: Test B preemergence/postemergence greenhouse plant response rating 0 to 10; format: in vivo, Digitaria spp.; conditions: 0 to 10 scale
# Procedure, shortened: as §1
# [7] = POSTEMERGENCE section, flood test, Rate 4 g/ha
# [8] = Rate 16 g/ha, under POSTEMERGENCE head (flood test species)
structure (smiles),measurement,setting,value
CC(C)OC(=O)c1cc(-c2nn3c(c2Cl)CCCC3)c(F)cc1Cl [Compound 44],"Plant response rating, Giant foxtail","giant foxtail [1]; POSTEMERGENCE, Rate 50 g/ha",6
same,"Plant response rating, Giant foxtail","giant foxtail [1]; PREEMERGENCE, Rate 50 g/ha",7
same,"Plant response rating, Giant foxtail","giant foxtail [1]; Rate 200 g/ha, POSTEMERGENCE",9
same,"Plant response rating, Giant foxtail","giant foxtail [1]; Rate 200 g/ha, PREEMERGENCE",8
same,"Plant response rating, Lambsquarter","lambsquarters; POSTEMERGENCE, Rate 50 g/ha",10
same,"Plant response rating, Lambsquarter","lambsquarters; PREEMERGENCE, Rate 50 g/ha",10
same,"Plant response rating, Lambsquarter","lambsquarters; Rate 200 g/ha, POSTEMERGENCE",10
same,"Plant response rating, Lambsquarter","lambsquarters; Rate 200 g/ha, PREEMERGENCE",10
same,Plant response rating Downy Brome,downy brome; 62 g/ha,50
same,Plant response rating Downy Brome,downy brome; 250 g/ha,90
same,"Plant response rating (0 to 100), Downy Brome",downy brome; Rate 4 g/ha,20
same,"Plant response rating (0 to 100), Downy Brome",downy brome; Rate 16 g/ha,40
same,"Plant response rating, Nutsedge","purple nutsedge; POSTEMERGENCE, Rate 50 g/ha",4
same,"Plant response rating, Nutsedge","purple nutsedge; PREEMERGENCE, Rate 50 g/ha",0
same,"Plant response rating, Nutsedge","purple nutsedge; Rate 200 g/ha, POSTEMERGENCE",8
same,"Plant response rating, Nutsedge","purple nutsedge; Rate 200 g/ha, PREEMERGENCE",3
same,"Plant response rating, Cocklebur","cocklebur; POSTEMERGENCE, Rate 50 g/ha",9
same,"Plant response rating, Cocklebur","cocklebur; POSTEMERGENCE, Rate 200 g/ha",10
same,"Plant response rating, Cocklebur","cocklebur; PREEMERGENCE, Rate 50 g/ha",6
same,"Plant response rating, Cocklebur","cocklebur; Rate 200 g/ha, PREEMERGENCE",9
same,"Plant response rating, Wild oat",wild oat [2]; 62 g/ha,50
same,"Plant response rating, Wild oat",wild oat [2]; 250 g/ha,60
same,"Plant response rating (0 to 100), Wild oat",wild oat [2]; Rate 4 g/ha,20
same,"Plant response rating (0 to 100), Wild oat",wild oat [2]; Rate 16 g/ha,30
same,"Plant response rating, Soybean",soybean; 62 g/ha,50
same,"Plant response rating, Soybean",soybean; 250 g/ha,70
same,"Plant response rating (0 to 100), Soybean",soybean; Rate 4 g/ha,10
same,"Plant response rating (0 to 100), Soybean",soybean; Rate 16 g/ha,30
same,"Plant response rating (0 to 100), Barnyardgrass 2",barnyardgrass [3]; [7],65
same,"Plant response rating (0 to 100), Barnyardgrass 2",barnyardgrass [3]; [8],100
same,Plant response rating Barnyardgrass 2,barnyardgrass [3]; 62 g/ha,100
same,Plant response rating Barnyardgrass 2,barnyardgrass [3]; 250 g/ha,100
same,"Plant response rating, Cotton",cotton; 62 g/ha,100
same,"Plant response rating, Cotton",cotton; 250 g/ha,100
same,"Plant response rating (0 to 100), Cotton",cotton; Rate 4 g/ha,90
same,"Plant response rating (0 to 100), Cotton",cotton; Rate 16 g/ha,100
same,"Plant response rating (0 to 100), Umbrella sedge",umbrella sedge; [7],30
same,"Plant response rating (0 to 100), Umbrella sedge",umbrella sedge; [8],60
same,Plant response rating Umbrella sedge,umbrella sedge; 62 g/ha,80
same,Plant response rating Umbrella sedge,umbrella sedge; 250 g/ha,100
same,"Plant response rating, Chickweed",chickweed; 62 g/ha,95
same,"Plant response rating, Chickweed",chickweed; 250 g/ha,100
same,"Plant response rating (0 to 100), Chickweed",chickweed; Rate 4 g/ha,30
same,"Plant response rating (0 to 100), Chickweed",chickweed; Rate 16 g/ha,80
same,"Plant response rating (0 to 100), Rice Japonica",rice; [7],10
same,"Plant response rating (0 to 100), Rice Japonica",rice; [8],30
same,Plant response rating Rice Japonica,rice; 62 g/ha,60
same,Plant response rating Rice Japonica,rice; 250 g/ha,85
same,"Plant response rating, Barnyardgrass","barnyardgrass [4]; POSTEMERGENCE, Rate 50 g/ha",8
same,"Plant response rating, Barnyardgrass","barnyardgrass [4]; POSTEMERGENCE, Rate 200 g/ha",10
same,"Plant response rating, Barnyardgrass","barnyardgrass [4]; PREEMERGENCE, Rate 50 g/ha",5
same,"Plant response rating, Barnyardgrass","barnyardgrass [4]; Rate 200 g/ha, PREEMERGENCE",8
same,"Plant response rating, Rape",rape; 62 g/ha,100
same,"Plant response rating, Rape",rape; 250 g/ha,100
same,"Plant response rating (0 to 100), Rape",rape; Rate 4 g/ha,40
same,"Plant response rating (0 to 100), Rape",rape; Rate 16 g/ha,70
same,"Plant response rating, Wild oat","wild oat [5]; POSTEMERGENCE, Rate 50 g/ha",5
same,"Plant response rating, Wild oat","wild oat [5]; PREEMERGENCE, Rate 50 g/ha",4
same,"Plant response rating, Wild oat","wild oat [5]; Rate 200 g/ha, POSTEMERGENCE",8
same,"Plant response rating, Wild buckwheat","wild buckwheat; POSTEMERGENCE, Rate 50 g/ha",10
same,"Plant response rating, Wild buckwheat","wild buckwheat; PREEMERGENCE, Rate 50 g/ha",9
same,"Plant response rating, Wild buckwheat","wild buckwheat; Rate 200 g/ha, POSTEMERGENCE",10
same,"Plant response rating, Wild buckwheat","wild buckwheat; Rate 200 g/ha, PREEMERGENCE",9
same,"Plant response rating, Giant foxtail",giant foxtail [6]; 62 g/ha,60
same,"Plant response rating, Giant foxtail",giant foxtail [6]; 250 g/ha,100
same,"Plant response rating (0 to 100), Giant foxtail",giant foxtail [6]; Rate 4 g/ha,20
same,"Plant response rating (0 to 100), Giant foxtail",giant foxtail [6]; Rate 16 g/ha,40
same,"Plant response rating, Crabgrass","crabgrass; POSTEMERGENCE, Rate 200 g/ha",10
same,"Plant response rating, Crabgrass","crabgrass; PREEMERGENCE, Rate 50 g/ha",3
same,"Plant response rating, Crabgrass","crabgrass; Rate 200 g/ha, PREEMERGENCE",9
